{"source": "patent US9283222B2", "about": "(priority 2006, dated 2016)", "data": [{"molecular_target": "Recombinant Human Poly(ADP-Ribose) Polymerase (PARP), PARP-1 (Homo sapiens (Human), UniProt P09874)", "sequence (P09874 whole entry)": "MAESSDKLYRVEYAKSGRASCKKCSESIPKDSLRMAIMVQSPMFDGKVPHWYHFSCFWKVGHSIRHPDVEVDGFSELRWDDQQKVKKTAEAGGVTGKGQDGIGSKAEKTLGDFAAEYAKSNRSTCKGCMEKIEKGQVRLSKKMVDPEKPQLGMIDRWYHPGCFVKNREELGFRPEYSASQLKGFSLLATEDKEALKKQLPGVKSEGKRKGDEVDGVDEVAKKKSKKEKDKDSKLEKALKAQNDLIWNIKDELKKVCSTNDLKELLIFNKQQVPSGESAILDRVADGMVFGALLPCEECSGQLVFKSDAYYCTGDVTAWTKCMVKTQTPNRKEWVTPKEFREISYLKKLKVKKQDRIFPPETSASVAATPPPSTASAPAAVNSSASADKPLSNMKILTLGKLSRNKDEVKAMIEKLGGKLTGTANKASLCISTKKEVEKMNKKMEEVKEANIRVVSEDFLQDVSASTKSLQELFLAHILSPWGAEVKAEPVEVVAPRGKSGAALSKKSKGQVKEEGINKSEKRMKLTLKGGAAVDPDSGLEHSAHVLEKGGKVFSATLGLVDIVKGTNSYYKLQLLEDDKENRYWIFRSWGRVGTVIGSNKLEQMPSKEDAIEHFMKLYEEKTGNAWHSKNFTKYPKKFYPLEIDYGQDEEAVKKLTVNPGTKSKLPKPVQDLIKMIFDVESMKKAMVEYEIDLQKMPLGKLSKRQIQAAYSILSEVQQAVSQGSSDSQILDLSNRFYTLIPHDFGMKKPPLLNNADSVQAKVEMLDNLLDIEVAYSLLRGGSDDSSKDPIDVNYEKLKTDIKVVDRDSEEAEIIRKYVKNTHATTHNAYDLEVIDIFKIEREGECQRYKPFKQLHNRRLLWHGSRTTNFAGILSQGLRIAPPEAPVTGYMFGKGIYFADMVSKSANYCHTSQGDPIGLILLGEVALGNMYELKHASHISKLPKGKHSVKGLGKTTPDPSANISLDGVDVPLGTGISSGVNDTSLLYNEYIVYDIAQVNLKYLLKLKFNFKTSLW", "conditions": "read-out: PARP-1 (Ki); Table 1; text calls the values EC50s", "units": {"Ki": "nM"}, "procedure": "Nicotinamide[2,5′,8-3H]adenine dinucleotide and strepavidin SPA beads were purchased from Amersham Biosiences. […] NAD^+, histone, aminobenzamide, 3-amino benzamide and Calf Thymus DNA (dcDNA) were purchased from Sigma. Stem loop oligonucleotide containing MCAT sequence was obtained from Qiagen. The oligos were dissolved to 1 mM in annealing buffer containing 10 mM Tris HCl pH 7.5, 1 mM EDTA, and 50 mM NaCl, incubated for 5 minutes at 95° C., and annealed at 45° C. for 45 minutes. […] Biotinylated histone H1 was prepared by treating the protein with Sulfo-NHS-LC-Biotin from Pierce. The biotinylation reaction was conducted by slowly and intermittently adding 3 equivalents of 10 mM Sulfo-NHS-LC-Biotin to 100 μM Histone H1 in phosphate-buffered saline, pH 7.5, at 4° C. with gentle vortexing over 1 minute followed by subsequent 4° C. incubation for 1 hour. Streptavidin coated (FlashPlate Plus) microplates were purchased from Perkin Elmer.\nPARP1 assay was conducted in PARP assay buffer containing 50 mM Tris pH 8.0, 1 mM DTT, 4 mM MgCl2. […] Auto reactions utilizing SPA bead-based detection were carried out in 100 μL volumes in white 96 well plates.", "values": [{"compound": "O=C(Nc1cccc(Cc2n[nH]c(=O)c3c2CCCC3)c1)c1ccco1", "note": "[Example 193, N-(3-((4-oxo-3,4,5,6,7,8-hexahydrophthalazin-1-yl)methyl)phenyl)-2-furamide]", "Ki": 100}, {"compound": "O=C(Nc1cccc(Cc2n[nH]c(=O)c3c2CCCC3)c1)c1ccoc1", "note": "[Example 194, N-(3-((4-oxo-3,4,5,6,7,8-hexahydrophthalazin-1-yl)methyl)phenyl)-3-furamide]", "Ki": 61}, {"compound": "Cc1cc(C(=O)Nc2cccc(Cc3n[nH]c(=O)c4c3CCCC4)c2)c(C)o1", "note": "[Example 195, 2,5-dimethyl-N-(3-((4-oxo-3,4,5,6,7,8-hexahydrophthalazin-1-yl)methyl)phenyl)-3-furamide]", "Ki": 177}, {"compound": "O=C(Nc1cccc(Cc2n[nH]c(=O)c3c2CCCC3)c1)c1cccs1", "note": "[Example 196, N-(3-((4-oxo-3,4,5,6,7,8-hexahydrophthalazin-1-yl)methyl)phenyl)thiophene-2-carboxamide]", "Ki": 286}, {"compound": "O=C(Nc1cccc(Cc2n[nH]c(=O)c3c2CCCC3)c1)c1ccsc1", "note": "[Example 197, N-(3-((4-oxo-3,4,5,6,7,8-hexahydrophthalazin-1-yl)methyl)phenyl)thiophene-3-carboxamide]", "Ki": 146}, {"compound": "Cc1ccsc1C(=O)Nc1cccc(Cc2n[nH]c(=O)c3c2CCCC3)c1", "note": "[Example 198, 3-methyl-N-(3-((4-oxo-3,4,5,6,7,8-hexahydrophthalazin-1-yl)methyl)phenyl)thiophene-2-carboxamide]", "Ki": 403}, {"compound": "Cc1ccc(C(=O)Nc2cccc(Cc3n[nH]c(=O)c4c3CCCC4)c2)s1", "note": "[Example 199, 5-methyl-N-(3-((4-oxo-3,4,5,6,7,8-hexahydrophthalazin-1-yl)methyl)phenyl)thiophene-2-carboxamide]", "Ki": 196}, {"compound": "O=C(Nc1cccc(Cc2n[nH]c(=O)c3c2CCCC3)c1)c1ccc[nH]1", "note": "[Example 200]", "Ki": 158}, {"compound": "Cn1cccc1C(=O)Nc1cccc(Cc2n[nH]c(=O)c3c2CCCC3)c1", "note": "[Example 201, 1-methyl-N-(3-((4-oxo-3,4,5,6,7,8-hexahydrophthalazin-1-yl)methyl)phenyl)-1H-pyrrole-2-carboxamide]", "Ki": 570}, {"compound": "Cc1cc(C(=O)Nc2cccc(Cc3n[nH]c(=O)c4c3CCCC4)c2)c(C)[nH]1", "note": "[Example 202, 2,5-dimethyl-N-(3-((4-oxo-3,4,5,6,7,8-hexahydrophthalazin-1-yl)methyl)phenyl)-1H-pyrrole-3-carboxamide]", "Ki": 93}, {"compound": "O=C(Nc1cccc(Cc2n[nH]c(=O)c3c2CCCC3)c1)c1nccs1", "note": "[Example 204, N-(3-((4-oxo-3,4,5,6,7,8-hexahydrophthalazin-1-yl)methyl)phenyl)-1,3-thiazole-2-carboxamide]", "Ki": 203}, {"compound": "O=C(Nc1cccc(Cc2n[nH]c(=O)c3c2CCCC3)c1)c1cscn1", "note": "[Example 205, N-(3-((4-oxo-3,4,5,6,7,8-hexahydrophthalazin-1-yl)methyl)phenyl)-1,3-thiazole-4-carboxamide]", "Ki": 176}, {"compound": "O=C(Nc1cccc(Cc2n[nH]c(=O)c3c2CCCC3)c1)c1cncs1", "note": "[Example 206, N-(3-((4-oxo-3,4,5,6,7,8-hexahydrophthalazin-1-yl)methyl)phenyl)-1,3-thiazole-5-carboxamide]", "Ki": 18}, {"compound": "O=C(Nc1cccc(Cc2n[nH]c(=O)c3c2CCCC3)c1)c1ccno1", "note": "[Example 208, N-(3-((4-oxo-3,4,5,6,7,8-hexahydrophthalazin-1-yl)methyl)phenyl)isoxazole-5-carboxamide]", "Ki": 22}, {"compound": "Cc1noc(C)c1C(=O)Nc1cccc(Cc2n[nH]c(=O)c3c2CCCC3)c1", "note": "[Example 209, 3,5-dimethyl-N-(3-((4-oxo-3,4,5,6,7,8-hexahydrophthalazin-1-yl)methyl)phenyl)isoxazole-4-carboxamide]", "Ki": 395}, {"compound": "O=C(Nc1cccc(Cc2n[nH]c(=O)c3c2CCCC3)c1)c1ccncc1", "note": "[Example 211, N-(3-((4-oxo-3,4,5,6,7,8-hexahydrophthalazin-1-yl)methyl)phenyl)isonicotinamide]", "Ki": 98}, {"compound": "O=C(Nc1cccc(Cc2n[nH]c(=O)c3c2CCCC3)c1)c1ncccc1O", "note": "[Example 212, 3-hydroxy-N-(3-((4-oxo-3,4,5,6,7,8-hexahydrophthalazin-1-yl)methyl)phenyl)pyridine-2-carboxamide]", "Ki": 65}, {"compound": "O=C(Nc1cccc(Cc2n[nH]c(=O)c3c2CCCC3)c1)c1cccnc1O", "note": "[Example 213, 2-hydroxy-N-(3-((4-oxo-3,4,5,6,7,8-hexahydrophthalazin-1-yl)methyl)phenyl)nicotinamide]", "Ki": 82}, {"compound": "O=C(Nc1cccc(Cc2n[nH]c(=O)c3c2CCCC3)c1)c1ccc(O)nc1", "note": "[Example 214, 6-hydroxy-N-(3-((4-oxo-3,4,5,6,7,8-hexahydrophthalazin-1-yl)methyl)phenyl)nicotinamide]", "Ki": 7}, {"compound": "O=C(Cc1ccccn1)Nc1cccc(Cc2n[nH]c(=O)c3c2CCCC3)c1", "note": "[Example 215, N-(3-((4-oxo-3,4,5,6,7,8-hexahydrophthalazin-1-yl)methyl)phenyl)-2-pyridin-2-ylacetamide]", "Ki": 85}, {"compound": "O=C(Cc1cccnc1)Nc1cccc(Cc2n[nH]c(=O)c3c2CCCC3)c1", "note": "[Example 216, N-(3-((4-oxo-3,4,5,6,7,8-hexahydrophthalazin-1-yl)methyl)phenyl)-2-pyridin-3-ylacetamide]", "Ki": 82}, {"compound": "Cc1cnc(C(=O)Nc2cccc(Cc3n[nH]c(=O)c4c3CCCC4)c2)cn1", "note": "[Example 217, 5-methyl-N-(3-((4-oxo-3,4,5,6,7,8-hexahydrophthalazin-1-yl)methyl)phenyl)pyrazine-2-carboxamide]", "Ki": 5}, {"compound": "O=C(Nc1cccc(Cc2n[nH]c(=O)c3c2CCCC3)c1)c1c[nH]c2ccccc12", "note": "[Example 218, N-(3-((4-oxo-3,4,5,6,7,8-hexahydrophthalazin-1-yl)methyl)phenyl)-1H-indole-3-carboxamide]", "Ki": 86}, {"compound": "Cc1c(C(=O)Nc2cccc(Cc3n[nH]c(=O)c4c3CCCC4)c2)cnn1-c1ccccc1", "note": "[Example 219]", "Ki": 9}, {"compound": "O=C(Nc1cccc(Cc2n[nH]c(=O)c3c2CCCC3)c1)C1=Cc2cc(Cl)ccc2OC1", "note": "[Example 220, 6-chloro-N-(3-((4-oxo-3,4,5,6,7,8-hexahydrophthalazin-1-yl)methyl)phenyl)-2H-chromene-3-carboxamide]", "Ki": 14}, {"compound": "CN(C)CCC(=O)Nc1cccc(Cc2n[nH]c(=O)c3c2CCCC3)c1", "note": "[Example 221]", "Ki": 1540}, {"compound": "Cc1ccc(C(=O)Nc2cccc(Cc3n[nH]c(=O)c4c3CCCC4)c2)c(O)c1", "note": "[Example 225, 2-hydroxy-4-methyl-N-(3-((4-oxo-3,4,5,6,7,8-hexahydrophthalazin-1-yl)methyl)phenyl)benzamide]", "Ki": 41}, {"compound": "CC(=O)c1ccc(C(=O)Nc2cccc(Cc3n[nH]c(=O)c4c3CCCC4)c2)cc1", "note": "[Example 226, 4-acetyl-N-(3-((4-oxo-3,4,5,6,7,8-hexahydrophthalazin-1-yl)methyl)phenyl)benzamide]", "Ki": 40}, {"compound": "COc1cc(C(=O)Nc2cccc(Cc3n[nH]c(=O)c4c3CCCC4)c2)ccc1C", "note": "[Example 227, 3-methoxy-4-methyl-N-(3-((4-oxo-3,4,5,6,7,8-hexahydrophthalazin-1-yl)methyl)phenyl)benzamide]", "Ki": 60}, {"compound": "CCOc1ccc(C(=O)Nc2cccc(Cc3n[nH]c(=O)c4c3CCCC4)c2)cc1", "note": "[Example 228, 4-ethoxy-N-(3-((4-oxo-3,4,5,6,7,8-hexahydrophthalazin-1-yl)methyl)phenyl)benzamide]", "Ki": 98}, {"compound": "COc1ccc(C(=O)Nc2cccc(Cc3n[nH]c(=O)c4c3CCCC4)c2)cc1F", "note": "[Example 229, 3-fluoro-4-methoxy-N-(3-((4-oxo-3,4,5,6,7,8-hexahydrophthalazin-1-yl)methyl)phenyl)benzamide]", "Ki": 49}, {"compound": "O=C(Nc1cccc(Cc2n[nH]c(=O)c3c2CCCC3)c1)c1cccc2ccccc12", "note": "[Example 230, N-(3-((4-oxo-3,4,5,6,7,8-hexahydrophthalazin-1-yl)methyl)phenyl)-1-naphthamide]", "Ki": 96}, {"compound": "O=C(Nc1cccc(Cc2n[nH]c(=O)c3c2CCCC3)c1)c1ccc2ccccc2c1", "note": "[Example 231, N-(3-((4-oxo-3,4,5,6,7,8-hexahydrophthalazin-1-yl)methyl)phenyl)-2-naphthamide]", "Ki": 110}, {"compound": "CC(C)(C)c1ccc(C(=O)Nc2cccc(Cc3n[nH]c(=O)c4c3CCCC4)c2)cc1", "note": "[Example 233, 4-tert-butyl-N-(3-((4-oxo-3,4,5,6,7,8-hexahydrophthalazin-1-yl)methyl)phenyl)benzamide]", "Ki": 158}, {"compound": "CC(=O)Nc1ccc(C(=O)Nc2cccc(Cc3n[nH]c(=O)c4c3CCCC4)c2)cc1", "note": "[Example 234, 4-(acetylamino)-N-(3-((4-oxo-3,4,5,6,7,8-hexahydrophthalazin-1-yl)methyl)phenyl)benzamide]", "Ki": 57}, {"compound": "CCCOc1ccc(C(=O)Nc2cccc(Cc3n[nH]c(=O)c4c3CCCC4)c2)cc1", "note": "[Example 235, N-(3-((4-oxo-3,4,5,6,7,8-hexahydrophthalazin-1-yl)methyl)phenyl)-4-propoxybenzamide]", "Ki": 198}, {"compound": "O=C(Nc1cccc(Cc2n[nH]c(=O)c3c2CCCC3)c1)c1ccc2ccccc2c1O", "note": "[Example 236, 1-hydroxy-N-(3-((4-oxo-3,4,5,6,7,8-hexahydrophthalazin-1-yl)methyl)phenyl)-2-naphthamide]", "Ki": 4}, {"compound": "CSc1ccc(Cl)c(C(=O)Nc2cccc(Cc3n[nH]c(=O)c4c3CCCC4)c2)c1", "note": "[Example 237, 2-chloro-5-(methylthio)-N-(3-((4-oxo-3,4,5,6,7,8-hexahydrophthalazin-1-yl)methyl)phenyl)benzamide]", "Ki": 68}, {"compound": "CCOc1ccc(C(=O)Nc2cccc(Cc3n[nH]c(=O)c4c3CCCC4)c2)cc1OCC", "note": "[Example 238, 3,4-diethoxy-N-(3-((4-oxo-3,4,5,6,7,8-hexahydrophthalazin-1-yl)methyl)phenyl)benzamide]", "Ki": 47}, {"compound": "O=C(Nc1cccc(Cc2n[nH]c(=O)c3c2CCCC3)c1)c1ccccc1Cc1ccccc1", "note": "[Example 239, 2-benzyl-N-(3-((4-oxo-3,4,5,6,7,8-hexahydrophthalazin-1-yl)methyl)phenyl)benzamide]", "Ki": 554}, {"compound": "O=C(Nc1cccc(Cc2n[nH]c(=O)c3c2CCCC3)c1)c1ccccc1Nc1ccccc1", "note": "[Example 240, 2-anilino-N-(3-((4-oxo-3,4,5,6,7,8-hexahydrophthalazin-1-yl)methyl)phenyl)benzamide]", "Ki": 285}]}]}
